From patent US6051712A, “Piperidine derivatives having renin inhibiting activity” (Hoffmann-La Roche Inc., priority 1995, dated 2000)
pIC50: −log10 of the molar value. Counter-ions that a name gives are not always drawn. Like-named read-outs stand apart in the source and are kept apart here.

Biological target: T1, human renin (Homo sapiens, UniProt P00797)
T1 sequence (P00797 67-406): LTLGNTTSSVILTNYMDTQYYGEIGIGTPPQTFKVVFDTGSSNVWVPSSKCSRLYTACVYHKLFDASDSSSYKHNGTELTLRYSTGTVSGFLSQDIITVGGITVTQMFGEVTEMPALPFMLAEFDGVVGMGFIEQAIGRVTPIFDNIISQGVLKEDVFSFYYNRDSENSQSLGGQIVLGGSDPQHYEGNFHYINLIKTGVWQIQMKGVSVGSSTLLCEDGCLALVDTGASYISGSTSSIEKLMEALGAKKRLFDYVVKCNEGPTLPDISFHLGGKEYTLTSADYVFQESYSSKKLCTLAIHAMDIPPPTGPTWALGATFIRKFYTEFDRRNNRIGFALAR
Experiment: In vitro test with pure human renin (angiotensin I production from human tetradecapeptide renin substrate, measured by RIA)
Assay type: biochemical
Procedure: In vitro test with pure human renin
The test is carried out in Eppendorf test tubes. The incubation mixture consists of (1) 100 μl of human renin in buffer A (0.1M sodium phosphate solution, pH 7.4, containing 0.1% bovine serum albumin, 0.1% sodium azide and 1 mM ethylenediaminetetraacetic acid), sufficient for a renin activity of 2-3 ng of angiotensin l/ml/hr.; (2) 145 μl of buffer A: (3) 30 μl of 10 mM human tetradecapeptide renin substrate (hTD) in 10 mM hydrochloric acid: (4) […] of dimethyl sulphoxide with or without inhibitor and (5) 10 μl of a 0.03 molar solution of hydroxyquinoline sulphate in water.
The samples are incubated for three hours at 37° C. and, respectively, 4° C. in triplicate. 2×100 μl samples per test tube are used in order to measure the production of angiotensin I via RIA (standard radioimmunoassay; clinical assay solid phase kit). […] The production of angiotensin I is determined by the difference between the test at 37° C, and that at 4° C.
The following controls are carried out:
(a) Incubation of hTD samples without renin and without inhibitor at 37° C. and 4° C. The difference between these two values gives the base value of the angiotensin I production.
(b) Incubation of hTD samples with renin, but without inhibitor at 37° C. and 4° C. The difference between these values gives the maximum value of the angiotensin I production.
In each sample the base value of the angiotensin I production is subtracted from the angiotensin I production which is determined. The difference between the maximum value and the base value gives the value of the maximum substrate hydrolysis (=100%) by renin.
The IC50 values are determined from a linear regression curve from a logit-log plot.

[1] = pure human renin, pH 7.4, three hours at 37° C. (less 4° C.), human tetradecapeptide substrate, angiotensin I by RIA, read-out: IC50 values (concentration of the inhibitor at which the enzymatic activity is inhibited by 50%)

| SMILES | pIC50 [1] | pIC50 |
| --- | --- | --- |
| COc1ccccc1COCCCOc1ccc([C@H]2CCNC[C@@H]2OCc2ccc3ccncc3c2)cc1 (racemic) [XX, (3RS,4RS)-3-(isoquinolin-7-ylmethoxy)-4-[4-[3-(2-methoxy-benzyloxy)-propoxy]-phenyl]-piperidine] | 9.10 | – |
| c1ccc(COCCCOc2ccc([C@@H]3[C@@H](OCc4ccc5ccccc5c4)CNC[C@H]3OCCN3CCOCC3)cc2)cc1 (racemic) [Y, 4-{2-[(3RS,4RS,5SR)-4-[4-(3-benzyloxy-propoxy)-phenyl]-3-(naphthalen-2-ylmethoxy)-piperidin-5-yloxy]-ethyl}-morpholine] | 8.52 | – |
| COc1ccccc1COCCCOc1ccc([C@H]2CCNC[C@@H]2OCc2ccc3c(c2)NCCC3)cc1 (racemic) [YY, (3RS,4RS)-4-[4-[3-(2-methoxy-benzyloxy)-propoxy]-phenyl]-3-(1,2,3,4-tetrahydro-quinolin-7-ylmethoxy)-piperidine] | 9.30 | – |
| COc1ccc(CO[C@H]2CNC[C@@H](O)[C@@H]2c2ccc(OCCCOCc3ccccc3)cc2)cc1 (racemic) [Z, (3RS,4SR,5SR)-4-[4-(3-benzyloxy-propoxy)-phenyl]-3-(4-methoxy-benzyloxy)-piperidin-5-ol] | 9.00 | – |
| COc1ccccc1COCCCOc1ccc([C@H]2[C@H](O)CNC[C@@H]2OCc2cc(OC)c3ccccc3c2OC)cc1 (racemic) [ZZ, (3RS,4SR,5SR)-3-(1,4-dimethoxy-naphthalen-2-ylmethoxy)-4-[4-[3-(2-methoxy-benzyloxy)-propoxy]-phenyl]-piperidin-5-ol] | 10.52 | – |
| O=C(OCCOc1ccc([C@H]2CCNC[C@@H]2OCc2ccc3ccccc3c2)cc1)c1ccccc1Cl (relative stereo) [B, (3RS,4RS)-2-[4-(3-napthalen-2-ylmethoxy-piperidin-4-yl)-phenoxy]-ethyl 2-chloro-benzoate hydrochloride] | 7.59 | – |
| c1ccc(COCCCOc2ccc([C@H]3[C@H](COCCN4CCOCC4)CNC[C@@H]3OCc3ccc4ccccc4c3)cc2)cc1 (relative stereo) [BB] | 8.52 | – |
| COC[C@@H]1CNC[C@H](OCc2ccc3ccccc3c2)[C@H]1c1ccc(OCCCOCc2ccccc2)cc1 (relative stereo) [CC] | 8.70 | – |
| CN1CCN(CCCNC(=O)OC[C@@H]2CNC[C@H](OCc3ccc4ccccc4c3)[C@H]2c2ccc(OCCCOCc3ccccc3)cc2)CC1 (relative stereo) [DD] | 9.00 | – |
| c1ccc(COCCCOc2ccc([C@H]3[C@H](CSc4ccncc4)CNC[C@@H]3OCc3ccc4ccccc4c3)cc2)cc1 (relative stereo) [EE] | 9.40 | – |
| COc1cc(CO[C@H]2CNCC[C@@H]2c2cnc(OCCCCC3CCCCC3)nc2)c(OC)c2ccccc12 (relative stereo) [FF] | 9.22 | – |
| COc1cc(CO[C@H]2CNCC[C@@H]2c2ccc(OCCCC3CCCCC3)nc2)c(OC)c2ccccc12 (relative stereo) [GG, (3'RS,4'RS)6-(3-Cyclohexyl-propoxy)-3(1,4-dimethoxy-naphthalen-2-ylmethox)-1',2',3',4',5',6hexahydro-[3,4']bipyridine] | 9.00 | – |
| OC[C@@H]1CNC[C@H](OCc2ccc3ccccc3c2)[C@H]1c1ccc(OCCCOCc2ccccc2)cc1 (relative stereo) [HH, (3SR,4RS,5RS)[4[4(3-Benzyloxy-propoxy)-phenyl5-(naphthalen-2-ylmethoxy)-pperidin-3-ylmethanol hydrochloride] | 8.22 | – |
| CN(C)CCN(C)C[C@@H]1CNC[C@H](OCc2ccc3ccccc3c2)[C@H]1c1ccc(OCCCOCc2ccccc2)cc1 (relative stereo) [II] | 8.70 | – |
| CCN(CC)C[C@@H]1CNC[C@H](OCc2ccc3ccccc3c2)[C@H]1c1ccc(OCCCOCc2ccccc2)cc1 (relative stereo) [JJ] | 8.70 | – |
| COc1ccccc1OCCCOc1ccc([C@H]2CCNC[C@@H]2OCc2cc(OC)c3ccccc3c2OC)cc1 (relative stereo) [LL] | 9.00 | – |
| c1ccc(COCCCOc2ccc([C@H]3[C@H](Cn4cncn4)CNC[C@@H]3OCc3ccc4ccccc4c3)cc2)cc1 (relative stereo) [NN, (3RS,4RS,5SR)4-[4(3-Benzyloxy-propoxy)-phenyl3-(naphthalen-2-ylmethoxy)-5[1,2,4]triazol1-ylmethyl-piperidine hydrochloride] | 9.00 | – |
| O=C(Cc1ccc2ccccc2c1)[C@H]1CNCC[C@@H]1c1ccc(OCCCOCc2ccccc2)cc1 (relative stereo) [R, [(3RS,4SR)-4-[4-(3-benzyloxy-propoxy)-phenyl]-piperidin-3-yl]-2-naphthalen-2-yl-ethanone hydrochloride (1:1)] | 8.52 | – |
| COc1ccccc1COCCCOc1ccc([C@H]2CCNC[C@@H]2OCc2cc(OC)c3ccccc3c2OC)cn1 (relative stereo) [TT] | 9.30 | – |
| COc1ccccc1COCCCOc1ccc([C@H]2CCNC[C@@H]2OCc2cc(OC)c3ccccc3c2OC)cc1 (relative stereo) [UU] | – | 10.00 |
| O=C1NCCN1C[C@@H]1CNC[C@H](OCc2ccc3ccccc3c2)[C@H]1c1ccc(OCCCOCc2ccccc2)cc1 (relative stereo) [VV] | 8.70 | – |
| COc1ccc(CO[C@H]2CNC[C@@H](OCc3ccc(OC)cc3)[C@@H]2c2ccc(OCCCOCc3ccccc3)cc2)cc1 [AA, (3R,4s,5S)-4-[4-(3-benzyloxy-propoxy)-phenyl]-3,5-bis-(4-methoxy-benzyloxy)-piperidine] | 9.00 | – |
| O=C(OC(Cc1ccc2ccccc2c1)[C@H]1CNCC[C@@H]1c1ccc(F)cc1)c1ccccc1 (stereo partly drawn) [K, (SR)- or (RS)-1-[(3RS,4SR)-4-(4-fluoro-phenyl)-piperidin-3-yl]-2-naphthalen-2-yl-ethyl benzoate hydrochloride (1:1)] | 5.59 | – |
| COc1cc(CO[C@H]2CNC[C@@H](OCc3cc(OC)c(OC)c(OC)c3)[C@@H]2c2ccc(OCCCOCc3ccccc3)cc2)cc(OC)c1OC [MM, (3R,4s,5S)-4-[4-(3-benzyloxy-propoxy)-phenyl]-3,5-bis-(3,4,5-trimethoxy-benzyloxy)-piperidine] | 9.30 | – |
| Fc1ccc([C@H]2CCNC[C@@H]2OCc2cc(OCc3ccccc3)c3ccccc3c2)cc1 [RR, (3R,4R)3-(4-Benzyloxy-naphthalen-2-ylmethoxy)-4-(4-fluoro-phenyl)-piperidne] | 6.57 | – |
| Fc1ccc([C@@H]2CCNC[C@H]2OCc2cc(OCc3ccccc3)c3ccccc3c2)cc1 [SS, (3S,4S)3-(4-Benzyloxy-naphthalen-2-ylmethoxy)-4-(4-fluoro-phenyl)-piperidne] | 3.88 | – |
